Legend:
Assay type in all cases: in vivo
Kochia (Kochia scoparia) [1] = assay: Test A preemergence; details: Bassia scoparia, pre-emergence, 240 h; for pest or weed control at 125 g/ha: 125 g ai/ha, Preemergence, visual injury rating after approximately 10 d, read-out: Kochia plant response rating (0 to 100 scale, 0 is no effect, 100 is complete control); for pest or weed control at 500 g/ha: 500 g ai/ha, preemergence, visual injury rating about 10 d after treatment, 0 to 100 scale (0 no effect, 100 complete control), read-out: Kochia plant response rating
Method in brief: (§1)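 Preemergence directed soil spray on seeded pots, or postemergence application to plants 2–10 cm, one- to two-leaf. Solvent mixture non-phytotoxic, with surfactant. Scored ~10 d later, visually, 0–100 vs untreated.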

[2] = test system: barnyardgrass (Echinochloa crus-galli); assay: Test A preemergence; details: Echinochloa crus-galli, pre-emergence, 240 h; for pest or weed control at 125 g/ha: 125 g ai/ha, Preemergence, visual injury rating after approximately 10 d, read-out: Barnyardgrass plant response rating (0 to 100 scale, 0 is no effect, 100 is complete control); for pest or weed control at 500 g/ha: 500 g ai/ha, preemergence, visual injury rating about 10 d after treatment, 0 to 100 scale (0 no effect, 100 complete control), read-out: Barnyardgrass plant response rating
Method in brief: as §1

[3] = test system: giant foxtail (Setaria faberii); assay: Test A preemergence; details: Setaria faberi, pre-emergence, 240 h; for pest or weed control at 125 g/ha: 125 g ai/ha, Preemergence, visual injury rating after approximately 10 d, read-out: Foxtail, Giant plant response rating (0 to 100 scale, 0 is no effect, 100 is complete control); for pest or weed control at 500 g/ha: 500 g ai/ha, preemergence, visual injury rating about 10 d after treatment, 0 to 100 scale (0 no effect, 100 complete control), read-out: Foxtail, Giant plant response rating
Method in brief: as §1

[4] = test system: pigweed (Amaranthus retroflexus); assay: Test A preemergence; details: Amaranthus retroflexus, pre-emergence, 240 h; for pest or weed control at 125 g/ha: 125 g ai/ha, Preemergence, visual injury rating after approximately 10 d, read-out: Pigweed plant response rating (0 to 100 scale, 0 is no effect, 100 is complete control); for pest or weed control at 500 g/ha: 500 g ai/ha, preemergence, visual injury rating about 10 d after treatment, 0 to 100 scale (0 no effect, 100 complete control), read-out: Pigweed plant response rating
[5] = test system: ragweed (common ragweed, Ambrosia elatior); assay: Test A preemergence; details: Ambrosia artemisiifolia, pre-emergence, 240 h; for pest or weed control at 125 g/ha: 125 g ai/ha, Preemergence, visual injury rating after approximately 10 d, read-out: Ragweed plant response rating (0 to 100 scale, 0 is no effect, 100 is complete control); for pest or weed control at 500 g/ha: 500 g ai/ha, preemergence, visual injury rating about 10 d after treatment, 0 to 100 scale (0 no effect, 100 complete control), read-out: Ragweed plant response rating
Method in brief: as §1

[6] = test system: ryegrass, Italian (Italian ryegrass, Lolium multiflorum); assay: Test A preemergence; details: Lolium multiflorum, pre-emergence, 240 h; for pest or weed control at 125 g/ha: 125 g ai/ha, Preemergence, visual injury rating after approximately 10 d, read-out: Ryegrass, Italian plant response rating (0 to 100 scale, 0 is no effect, 100 is complete control); for pest or weed control at 500 g/ha: 500 g ai/ha, preemergence, visual injury rating about 10 d after treatment, 0 to 100 scale (0 no effect, 100 complete control), read-out: Ryegrass, Italian plant response rating
Method in brief: as §1

Kochia (Kochia scoparia) [7] = assay: Test A postemergence; details: Bassia scoparia, post-emergence, 240 h, postemergence, approx. 10 d; for pest or weed control at 125 g/ha: 125 g ai/ha, visual injury on 0 to 100 scale (0 no effect, 100 complete control), read-out: Kochia plant response rating; for pest or weed control at 500 g/ha: 500 g ai/ha, visual injury, 0 to 100 scale (0 no effect, 100 complete control), read-out: Plant response rating, Kochia
Method in brief: as §1

[8] = test system: barnyardgrass (Echinochloa crus-galli); assay: Test A postemergence; details: Echinochloa crus-galli, post-emergence, 240 h; for pest or weed control at 125 g/ha: 125 g ai/ha; for pest or weed control at 500 g/ha: 500 g ai/ha, visual injury, 0 to 100 scale (0 no effect, 100 complete control)
Method in brief: as §1

[9] = test system: giant foxtail (Setaria faberii); assay: Test A postemergence; details: Setaria faberi, post-emergence, 240 h, postemergence, approx. 10 d; for pest or weed control at 125 g/ha: 125 g ai/ha, visual injury on 0 to 100 scale (0 no effect, 100 complete control), read-out: Foxtail, Giant plant response rating; for pest or weed control at 500 g/ha: 500 g ai/ha, visual injury, 0 to 100 scale (0 no effect, 100 complete control), read-out: Plant response rating, Foxtail, Giant
Method in brief: as §1

[10] = test system: ragweed (common ragweed, Ambrosia elatior); assay: Test A postemergence; details: Ambrosia artemisiifolia, post-emergence, 240 h, postemergence, approx. 10 d; for pest or weed control at 125 g/ha: 125 g ai/ha, visual injury on 0 to 100 scale (0 no effect, 100 complete control), read-out: Ragweed plant response rating
Method in brief: as §1

[11] = test system: barnyardgrass (Echinochloa crus-galli); assay: Test B flooded paddy test; details: Echinochloa crus-galli, 250 g ai/ha, Flood; 0 to 100 scale where 0 is no effect and 100 is complete control; read-out: Barnyardgrass plant response rating
Method in brief: (§2)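 Greenhouse paddy pots with 2-leaf stage plants received compound by direct addition to floodwater 3 cm deep, kept at that level. Scored visually at 13–15 d versus controls (0 no effect; 100 complete control).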

[12] = test system: ducksalad (Heteranthera limosa); assay: Test B flooded paddy test; details: Heteranthera limosa, 250 g ai/ha, Flood; 0 to 100 scale where 0 is no effect and 100 is complete control; read-out: Ducksalad plant response rating
Method in brief: as §2

rice (Oryra sativa) = assay: Test B flooded paddy test; details: Oryza sativa, 250 g ai/ha, Flood; 0 to 100 scale where 0 is no effect and 100 is complete control; read-out: Rice plant response rating
Method in brief: as §2

[13] = test system: sedge, umbrella (small-flower umbrella sedge, Cyperus difformis); assay: Test B flooded paddy test; details: Cyperus difformis, 250 g ai/ha, Flood; 0 to 100 scale where 0 is no effect and 100 is complete control; read-out: Sedge, Umbrella plant response rating
Method in brief: as §2

[14] = Postemergence, visual injury after approximately 10 d, 0 to 100 scale where 0 is no effect and 100 is complete control, read-out: Plant response rating, Barnyardgrass
[15] = postemergence, approx. 10 d, read-out: Plant response rating, Barnyardgrass
[16] = postemergence, visual injury on 0 to 100 scale (0 no effect, 100 complete control), approx. 10 d, read-out: Barnyardgrass plant response rating

SMILES | pest or weed control at 125 g/ha (Kochia (Kochia scoparia) [1]) [%] | pest or weed control at 500 g/ha (Kochia (Kochia scoparia) [1]) [%] | pest or weed control at 125 g/ha [2] [%] | pest or weed control at 500 g/ha [2] [%] | pest or weed control at 125 g/ha [3] [%] | pest or weed control at 500 g/ha [3] [%] | pest or weed control at 125 g/ha [4] [%] | pest or weed control at 500 g/ha [4] [%] | pest or weed control at 125 g/ha [5] [%] | pest or weed control at 500 g/ha [5] [%] | pest or weed control at 125 g/ha [6] [%] | pest or weed control at 500 g/ha [6] [%] | pest or weed control at 125 g/ha (Kochia (Kochia scoparia) [7]) [%] | pest or weed control at 500 g/ha (Kochia (Kochia scoparia) [7]) [%] | pest or weed control at 500 g/ha [8, 15] [%] | pest or weed control at 125 g/ha [9] [%] | pest or weed control at 500 g/ha [9] [%] | pest or weed control at 125 g/ha [10] [%] | pest or weed control at 250 g/ha [11] [%] | pest or weed control at 250 g/ha [12] [%] | further results
Cc1ccc([C@H]2CNC(=O)[C@@H]2C(=O)Nc2cccc(F)c2F)cc1C [Compound 1034] | 60 | 70 | 90 | 90 | 80 | 90 | 0 | 0 | 30 | 90 | 20 | 60 | 20 | 30 | 90 | 20 | 80 | 10 | 60 | 100 | pest or weed control at 125 g/ha [8, 14]: 90%; pest or weed control at 500 g/ha ([10]; 500 g ai/ha, visual injury, 0 to 100 scale (0 no effect, 100 complete control), read-out: Plant response rating, Ragweed): 40%; pest or weed control at 250 g/ha (rice (Oryra sativa)): 0%; pest or weed control at 250 g/ha [13]: 0%
Cc1ccc([C@H]2CN(C)C(=O)[C@@H]2C(=O)Nc2ccccc2F)cc1C [Compound 1038] | 80 | 80 | 100 | 100 | 100 | 100 | 20 | 30 | 20 | 70 | 30 | 70 | 40 | 80 | 90 | 90 | 90 | 0 | 65 | 100 | pest or weed control at 125 g/ha [8, 14]: 90%; pest or weed control at 250 g/ha (rice (Oryra sativa)): 0%; pest or weed control at 250 g/ha [13]: 0%
Cc1cc([C@H]2CNC(=O)[C@@H]2C(=O)Nc2ccccc2F)ccc1C(F)(F)F [Compound 1042] | 20 | 70 | 90 | 90 | 90 | 90 | 30 | 50 | 20 | 40 | 30 | 50 | 30 | 60 | 90 | 80 | 90 | 0 | 30 | 75 | pest or weed control at 125 g/ha [8, 16]: 80%; pest or weed control at 250 g/ha (rice (Oryra sativa)): 0%; pest or weed control at 250 g/ha [13]: 0%
Cc1cc([C@H]2CNC(=O)[C@@H]2C(=O)Nc2ccccc2Cl)ccc1C(F)(F)F [Compound 1044] | 0 | 50 | 90 | 90 | 70 | 90 | 0 | 30 | 0 | 30 | 0 | 50 | 0 | 50 | 80 | 60 | 90 | 20 | 0 | 0 | pest or weed control at 125 g/ha [8, 16]: 70%; pest or weed control at 250 g/ha (rice (Oryra sativa)): 0%; pest or weed control at 250 g/ha [13]: 0%
O=C1NC[C@H](c2ccc3c(c2)CCC3)[C@H]1C(=O)Nc1ccccc1F [Compound 1045] | 0 | 20 | 90 | 90 | 80 | 90 | 0 | 0 | 0 | 30 | 30 | 70 | 0 | 0 | 90 | 60 | 90 | 30 | 75 | 100 | pest or weed control at 125 g/ha [8, 16]: 90%; pest or weed control at 250 g/ha (rice (Oryra sativa)): 0%; pest or weed control at 250 g/ha [13]: 0%
